Assays:
COV318 cells = assay: Cell cycle analysis by FACS after p16 knockdown; format: cell-based, human; conditions: 100 nM, 16 hours
Method: To confirm the role of p16 in CDK2-sensitivity of CCNE1-amplified cells, COV318 cells were treated with control or p16-specific siRNA.
Bulk DNA was stained with DAPI. Compound-treated and DMSO treated control cells were acquired with CytoFlex (Beckman Coulter) and were analyzed using the FlowJo software. For cell cycle analysis of cells with siRNA knockdown, 72 hours after siRNA transfection, cells exposed to 10 μM EdU for 3 hours before detection of Click-iT Alexa Fluor® 647 azide kit.

[1] = test system: Rb phosphorylated on serine 780 in CCNE1 amplified COV318 cells; assay: CDK2 pRb (S780) HTRF cellular assay; format: cell-based; conditions: Homo sapiens, read-out: IC50 in p-RB S780 HTRF cellular assay
CDK2/Cyclin E1 = CDK2/Cyclin E1 (Homo sapiens (Human), UniProt P24941); assay: CDK2/Cyclin E1 HTRF enzyme activity assay; format: biochemical; conditions: 1 mM ATP
Method: Assays are conducted in white 384-well polystyrene plates in a final reaction volume of 8 μL. […] HTRF signals are read after 1 hour at room temperature on a PHERAstar FS plate reader (BMG Labtech). Data is analyzed with IDBS XLFit and GraphPad Prism 5.0 software using a three or four parameter dose response curve to determine IC50 for each compound.

JAK2 = JAK2 (Homo sapiens (Human), UniProt O60674); assay: JAK inhibitory activity assay (JAK2); format: biochemical; conditions: 1 mM ATP
Chain of JAK2 (O60674 828-1132): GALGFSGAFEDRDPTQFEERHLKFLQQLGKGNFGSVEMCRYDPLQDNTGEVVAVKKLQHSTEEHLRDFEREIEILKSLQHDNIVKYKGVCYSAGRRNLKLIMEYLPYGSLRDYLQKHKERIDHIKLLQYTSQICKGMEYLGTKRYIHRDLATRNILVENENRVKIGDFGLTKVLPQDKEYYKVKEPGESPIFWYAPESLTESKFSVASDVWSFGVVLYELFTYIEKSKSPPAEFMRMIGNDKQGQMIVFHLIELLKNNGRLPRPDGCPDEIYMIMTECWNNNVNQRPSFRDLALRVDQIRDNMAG
Method: (§1) Compounds herein were tested for inhibitory activity of JAK targets according to the following in vitro assay described in Park et al., Analytical Biochemistry 1999, 269, 94-104. The catalytic domains of human JAK1 (a.a. 837-1142), Jak2 (a.a. 828-1132) and Jak3 (a.a. 781-1124) with an N-terminal His tag were expressed using baculovirus in insect cells and purified. The catalytic activity of JAK1 and JAK2 was assayed by measuring the phosphorylation of a biotinylated peptide. The phosphorylated peptide was detected by homogenous time resolved fluorescence (HTRF). Each enzyme reaction was carried out with or without test compound (11-point dilution), JAK enzyme, 500 nM peptide, adenosine triphosphate (ATP; 1 mM), and 2.0% dimethyl sulfoxide (DMSO) in assay buffer (50 mM Tris (pH 7.8) buffer, 100 mM NaCl, 5 mM DTT, and 0.1 mg/mL (0.01%) BSA). The peptide substrate (Biotin-[…]) was custom synthesized by Biosource International. Reactions were carried out at room temperature for 1 hour and then stopped with 10 μL 45 mM EDTA, 200 nM SA-APC, 4 nM Eu-Py20 in assay buffer (Perkin Elmer, Boston, Mass.). After incubation for 30 minutes at room temperature, the HTRF signal was measured on a PheraStar plate reader.

human JAK1 = human JAK1 (Homo sapiens, UniProt P23458); assay: JAK inhibitory activity assay (JAK1); format: biochemical; conditions: 1 mM ATP
Method: as §1

SMILES | percentage of S phase cells (COV318 cells; control siRNA-treated COV318 cells) | percentage of S phase cells (COV318 cells; p16 knocked down COV318 cells, compared to DMSO) | IC50 [1] | IC50 (CDK2/Cyclin E1) | IC50 (JAK2) | IC50 (human JAK1)
C[C@@]1(O)CCC[C@H]1n1c(=O)ccc2cnc(NC3CCN(S(C)(=O)=O)CC3)nc21 [Compound A, 8-((1R,2R)-2-hydroxy-2-methylcyclopentyl)-2-((1-(methylsulfonyl)piperidin-4-yl)amino)pyrido[2,3-d]pyrimidin-7(8H)-one] | significantly decreased | not significantly decreased | 0.037 µM |  |  | 
Cn1cc(S(=O)(=O)N2CCC(Nc3ncc(C(F)(F)F)c(-c4cnn(CC(F)(F)F)c4)n3)CC2)cn1 [Example 1, N-(1-((1-Methyl-1H-pyrazol-4-yl)sulfonyl)piperidin-4-yl)-4-(1-(2,2,2-trifluoroethyl)-1H-pyrazol-4-yl)-5-(trifluoromethyl)pyrimidin-2-amine] |  |  |  | < 0.05 µM | ≥ 10 µM | ≥ 10 µM
CS(=O)(=O)N1CCC(Nc2ncc(C(F)(F)F)c(-c3cnn(CC(F)(F)F)c3)n2)CC1 [Example 10, N-(1-(Methylsulfonyl)piperidin-4-yl)-4-(1-(2,2,2-trifluoroethyl)-1H-pyrazol-4-yl)-5-(trifluoromethyl)pyrimidin-2-amine] |  |  |  | < 0.05 µM | ≥ 10 µM | ≥ 10 µM
CN1CCC(n2cc(-c3nc(NC4CCN(S(C)(=O)=O)CC4)ncc3C(F)(F)F)cn2)CC1 [Example 11, 4-(1-(1-Methylpiperidin-4-yl)-1H-pyrazol-4-yl)-N-(1-(methylsulfonyl)piperidin-4-yl)-5-(trifluoromethyl)pyrimidin-2-amine] |  |  |  | < 0.05 µM | ≥ 10 µM | ≥ 10 µM
CNCc1ccc(-n2cc(-c3nc(NC4CCN(S(C)(=O)=O)CC4)ncc3C(F)(F)F)cn2)c(C)c1 [Example 41, 4-(1-(2-Methyl-4-((methylamino)methyl)phenyl)-1H-pyrazol-4-yl)-N-(1-(methylsulfonyl)piperidin-4-yl)-5-(trifluoromethyl)pyrimidin-2-amine] |  |  |  | < 0.05 µM | ≥ 10 µM | ≥ 10 µM
CO[C@H]1CC[C@H](n2cc(-c3nc(NC4CCN(S(=O)(=O)c5cn(C)cn5)CC4)ncc3C(F)(F)F)cn2)CC1 [Example 42, 4-(1-((1r,4r)-4-Methoxycyclohexyl)-1H-pyrazol-4-yl)-N-(1-((1-methyl-1H-imidazol-4-yl)sulfonyl)piperidin-4-yl)-5-(trifluoromethyl)pyrimidin-2-amine] |  |  |  | < 0.05 µM | ≥ 5 µM | ≥ 5 µM
C[C@]1(N)C[C@@H](n2cc(-c3nc(NC4CCN(S(=O)(=O)C5CC5)CC4)ncc3C(F)(F)F)cn2)C1 [Example 44, 4-(1-((1s,3s)-3-Amino-3-methylcyclobutyl)-1H-pyrazol-4-yl)-N-(1-(cyclopropylsulfonyl)piperidin-4-yl)-5-(trifluoromethyl)pyrimidin-2-amine] |  |  |  | < 0.05 µM | ≥ 10 µM | ≥ 10 µM
CC(C)(O)Cn1cc(-c2nc(NC3CCN(S(=O)(=O)C4CC4)CC3)ncc2C(F)(F)F)cn1 [Example 51, 1-(4-(2-((1-(Cyclopropylsulfonyl)piperidin-4-yl)amino)-5-(trifluoromethyl)pyrimidin-4-yl)-1H-pyrazol-1-yl)-2-methylpropan-2-ol] |  |  |  | < 0.05 µM | ≥ 10 µM | ≥ 10 µM
CC(C)(O)Cn1cc(-c2nc(NC3CCN(S(=O)(=O)C4CC4)CC3)ncc2C#N)cn1 [Example 54, 2-((1-(Cyclopropylsulfonyl)piperidin-4-yl)amino)-4-(1-(2-hydroxy-2-methylpropyl)-1H-pyrazol-4-yl)pyrimidine-5-carbonitrile] |  |  |  | < 0.05 µM | ≥ 10 µM | ≥ 10 µM
CC(C)(C(N)=O)n1cc(-c2nc(NC3CCN(S(=O)(=O)c4ccccn4)CC3)ncc2C(F)(F)F)cn1 [Example 96, 2-Methyl-2-(4-(2-((1-(pyridin-2-ylsulfonyl)piperidin-4-yl)amino)-5-(trifluoromethyl)pyrimidin-4-yl)-1H-pyrazol-1-yl)propanamide] |  |  |  | < 0.05 µM | ≥ 10 µM | ≥ 10 µM
CN1CCN(Cc2ccc(-n3cc(-c4nc(NC5CCN(S(C)(=O)=O)CC5)ncc4C#N)cn3)c(Cl)c2)CC1 [Example 99, 4-(1-(2-Chloro-4-((4-methylpiperazin-1-yl)methyl)phenyl)-1H-pyrazol-4-yl)-2-((1-(methylsulfonyl)piperidin-4-yl)amino)pyrimidine-5-carbonitrile] |  |  |  | < 0.05 µM | ≥ 10 µM | ≥ 10 µM
CS(=O)(=O)N1CCC(Nc2ncc(C#N)c(-c3cnn(-c4ccc(CNCCN5CCS(=O)(=O)CC5)cc4Cl)c3)n2)CC1 [Example 290, 4-(1-(2-Chloro-4-(((2-(1,1-dioxidothiomorpholino)ethyl)amino)methyl)phenyl)-1H-pyrazol-4-yl)-2-((1-(methylsulfonyl)piperidin-4-yl)amino)pyrimidine-5-carbonitrile] |  |  |  | < 0.05 µM |  | 
C[C@@H](O)CNCc1ccc(-n2cc(-c3nc(NC4CCN(S(C)(=O)=O)CC4)ncc3C#N)cn2)c(Cl)c1 [Example 291, (R)-4-(1-(2-Chloro-4-(((2-hydroxypropyl)amino)methyl)phenyl)-1H-pyrazol-4-yl)-2-((1-(methylsulfonyl)piperidin-4-yl)amino)pyrimidine-5-carbonitrile] |  |  |  | < 0.05 µM |  | 
C[C@H](O)CNCc1ccc(-n2cc(-c3nc(NC4CCN(S(C)(=O)=O)CC4)ncc3C#N)cn2)c(Cl)c1 [Example 292, (S)-4-(1-(2-Chloro-4-(((2-hydroxypropyl)amino)methyl)phenyl)-1H-pyrazol-4-yl)-2-((1-(methylsulfonyl)piperidin-4-yl)amino)pyrimidine-5-carbonitrile] |  |  |  | < 0.05 µM |  | 

Reference: patent publication US11472791B2 (Incyte Corporation, priority 2019, dated 2022)
